Where two headings read alike, the source gives them in different places.
Assays:
MOLT-4 (Leukemia) = assay: NCI DTP tumor cell line screen (SRB), MOLT-4
Description: (§1) For a typical screening experiment, cells are inoculated into 96 well microtiter plates in 100 μL at plating densities ranging from 5,000 to 40,000 cells/well depending on the doubling time of individual cell lines. After cell inoculation, the microtiter plates are incubated at 37° C., 5% CO2, 95% air and 100% relative humidity for 24 h prior to addition of experimental drugs.
(§2) After 24 h, two plates of each cell line are fixed in situ with TCA, to represent a measurement of the cell population for each cell line at the time of drug addition (Tz). Experimental drugs are solubilized in dimethyl sulfoxide at 400-fold the desired final maximum test concentration and stored frozen prior to use. At the time of drug addition, an aliquot of frozen concentrate is thawed and diluted to twice the desired final maximum test concentration with complete medium containing 50 μg/ml gentamicin. Additional four, 10-fold or ½ log serial dilutions are made to provide a total of five drug concentrations plus control. Aliquots of 100 μl of these different drug dilutions are added to the appropriate microtiter wells already containing 100 μl of medium, resulting in the required final drug concentrations.
(§3) Following drug addition, the plates are incubated for an additional 48 h at 37° C., 5% CO2, 95% air, and 100% relative humidity. For adherent cells, the assay is terminated by the addition of cold TCA. Cells are fixed in situ by the gentle addition of 50 μl of cold 50% (w/v) TCA (final concentration, 10% TCA) and incubated for 60 minutes at 4° C. The supernatant is discarded, and the plates are washed five times with tap water and air dried. Sulforhodamine B (SRB) solution (1001) at 0.4% (w/v) in 1% acetic acid is added to each well, and plates are incubated for 10 minutes at room temperature. After staining, unbound dye is removed by washing five times with 1% acetic acid and the plates are air dried. Bound stain is subsequently solubilized with 10 mM trizma base, and the absorbance is read on an automated plate reader at a wavelength of 515 nm. For suspension cells, the methodology is the same except that the assay is terminated by fixing settled cells at the bottom of the wells by gently adding 50 μl of 80% TCA (final concentration, 16% TCA). Using the seven absorbance measurements [time zero, (Tz), control growth, (C), and test growth in the presence of drug at the five concentration levels (Ti)], the percentage growth is calculated at each of the drug concentrations levels. Percentage growth inhibition is calculated as: [(Ti−Tz)/(C−Tz)]×100 for concentrations for which Ti>/=Tz [(Ti−Tz)/Tz]×100 for concentrations for which Ti<Tz
(§4) Three dose response parameters are calculated for each experimental agent. […] The drug concentration resulting in total growth inhibition (TGI) is calculated from Ti=Tz. […] Values are calculated for each of these three parameters if the level of activity is reached; however, if the effect is not reached or is exceeded, the value for that parameter is expressed as greater or less than the maximum or minimum concentration tested.

HS 578T (Breast Cancer) = assay: NCI DTP tumor cell line screen (SRB), HS 578T
Description: as §1, §2, §3, §4

HT29 (Colon Cancer) = assay: NCI DTP tumor cell line screen (SRB), HT29
Description: as §1, §2, §3, §4

[1] = system: NCI-H522 (Non-Small Cell Lung Cancer)
Description: as §1, §2, §3, §4

[2] = system: HOP-92 (Non-Small Cell Lung Cancer); assay: NCI DTP tumor cell line screen (SRB), HOP-92
Description: as §1, §2, §3, §4

RXF 393 (Renal Cancer) = assay: NCI DTP tumor cell line screen (SRB), RXF 393; conditions: RXF 393
Description: as §1, §2, §3, §4

M14 (Melanoma) = assay: NCI DTP tumor cell line screen (SRB), M14
Description: as §1, §2, §3, §4

OVCAR-4 (Ovarian Cancer) = assay: NCI DTP tumor cell line screen (SRB), OVCAR-4
Description: as §1, §2, §3, §4

SN12C (Renal Cancer) = assay: NCI DTP tumor cell line screen (SRB), SN12C
Description: as §1, §2, §3, §4

## NCC(=O)Nc1ccc(-n2nc(C(F)(F)F)cc2-c2ccc3c(ccc4ccccc43)c2)cc1 [Compound 70, 2-Amino-N-{4-[5-(2-phenanthrenyl)-3-(trifluoromethyl)-1H-pyrazol-1-yl]-phenyl}-acetamide]
MOLT-4 (Leukemia); Log10 Concentration −7.0
  Mean Optical Densities: 0.951
  Percent Growth: 87%
MOLT-4 (Leukemia); Log10 Concentration −8.0
  Mean Optical Densities: 0.964
  Percent Growth: 89%
HS 578T (Breast Cancer)
  TGI: 5.25E−06
HS 578T (Breast Cancer); Log10 Concentration −4.0
  Mean Optical Densities: 0.333
HS 578T (Breast Cancer); Log10 Concentration −5.0
  Mean Optical Densities: 0.351
HS 578T (Breast Cancer); Log10 Concentration −6.0
  Mean Optical Densities: 1.110
HS 578T (Breast Cancer); Log10 Concentration −7.0
  Mean Optical Densities: 1.179
HS 578T (Breast Cancer); Log10 Concentration −8.0
  Mean Optical Densities: 1.221
HT29 (Colon Cancer)
  TGI: 2.64E−06
HT29 (Colon Cancer); Log10 Concentration −4.0
  Mean Optical Densities: 0.159
HT29 (Colon Cancer); Log10 Concentration −5.0
  Mean Optical Densities: 0.075
  Percent Growth: −65%
HT29 (Colon Cancer); Log10 Concentration −6.0
  Mean Optical Densities: 0.801
  Percent Growth: 47%
HT29 (Colon Cancer); Log10 Concentration −7.0
  Mean Optical Densities: 1.299
  Percent Growth: 88%
HT29 (Colon Cancer); Log10 Concentration −8.0
  Percent Growth: 92%
[1]
  TGI: 3.94E−06
[1]; Log10 Concentration −4.0
  Mean Optical Densities: 0.486
[1]; Log10 Concentration −5.0
  Mean Optical Densities: 0.260
  Percent Growth: −66%
[1]; Log10 Concentration −6.0
  Mean Optical Densities: 1.528
  Percent Growth: 97%
[1]; Log10 Concentration −7.0
  Mean Optical Densities: 1.718
  Percent Growth: 122%
[1]; Log10 Concentration −8.0
  Mean Optical Densities: 1.626
  Percent Growth: 110%
[2]
  TGI: 3.07E−06
[2]; Log10 Concentration −4.0
  Mean Optical Densities: 0.267
[2]; Log10 Concentration −5.0
  Mean Optical Densities: 0.095
  Percent Growth: −91%
[2]; Log10 Concentration −6.0
  Mean Optical Densities: 1.465
  Percent Growth: 87%
[2]; Log10 Concentration −7.0
  Mean Optical Densities: 1.474
  Percent Growth: 89%
[2]; Log10 Concentration −8.0
  Mean Optical Densities: 1.509
  Percent Growth: 96%
RXF 393 (Renal Cancer); Log10 Concentration −4.0
  Mean Optical Densities: 0.441
RXF 393 (Renal Cancer); Log10 Concentration −5.0
  Mean Optical Densities: 0.177
  Percent Growth: −56%
RXF 393 (Renal Cancer); Log10 Concentration −6.0
  Mean Optical Densities: 0.628
  Percent Growth: 56%
RXF 393 (Renal Cancer); Log10 Concentration −7.0
  Mean Optical Densities: 0.700
RXF 393 (Renal Cancer); Log10 Concentration −8.0
  Mean Optical Densities: 0.766
M14 (Melanoma)
  TGI: 5.37E−06
M14 (Melanoma); Log10 Concentration −4.0
  Mean Optical Densities: 0.256
M14 (Melanoma); Log10 Concentration −5.0
  Mean Optical Densities: 0.211
  Percent Growth: −33%
M14 (Melanoma); Log10 Concentration −6.0
  Mean Optical Densities: 0.916
  Percent Growth: 90%
M14 (Melanoma); Log10 Concentration −7.0
  Mean Optical Densities: 0.974
  Percent Growth: 98%
M14 (Melanoma); Log10 Concentration −8.0
  Mean Optical Densities: 0.975
  Percent Growth: 98%
OVCAR-4 (Ovarian Cancer)
  TGI: 3.41E−06
OVCAR-4 (Ovarian Cancer); Log10 Concentration −4.0
  Mean Optical Densities: 0.172
OVCAR-4 (Ovarian Cancer); Log10 Concentration −5.0
  Mean Optical Densities: 0.093
  Percent Growth: −82%
OVCAR-4 (Ovarian Cancer); Log10 Concentration −6.0
  Mean Optical Densities: 1.086
  Percent Growth: 94%
OVCAR-4 (Ovarian Cancer); Log10 Concentration −7.0
  Mean Optical Densities: 1.073
  Percent Growth: 92%
OVCAR-4 (Ovarian Cancer); Log10 Concentration −8.0
  Mean Optical Densities: 1.114
  Percent Growth: 99%
SN12C (Renal Cancer)
  TGI: 3.51E−06
SN12C (Renal Cancer); Log10 Concentration −4.0
  Mean Optical Densities: 0.308
SN12C (Renal Cancer); Log10 Concentration −5.0
  Mean Optical Densities: 0.203
  Percent Growth: −65%
SN12C (Renal Cancer); Log10 Concentration −6.0
  Mean Optical Densities: 1.093
  Percent Growth: 78%
SN12C (Renal Cancer); Log10 Concentration −7.0
  Mean Optical Densities: 1.194
  Percent Growth: 94%
SN12C (Renal Cancer); Log10 Concentration −8.0
  Mean Optical Densities: 1.209
  Percent Growth: 96%

Reference: patent US8741944B2, “Anti-infective agents against intracellular pathogens” (priority 2007, dated 2014)
